Square brackets hold non-standard residues; d marks the D form. Peptide text beside a SMILES is read from it. * marks the point of attachment. Sta = CC(C)C[C@H](N)[C@@H](O)CC(=O)O; Isovaleryl = CC(C)CC(=O)*
Legend:
[1] = tested on: Carcinoma cell trouase; assay: Inhibition and re-activation of carcinoma cell trouase; format: biochemical; details: for inhibition of trouase: carcinoma cell trouase
[2] = tested on: MCF 7/6 (breast carcinoma) cell homogenate; assay: Compound screen: cleavage by MCF 7/6 cell homogenate, HPLC; format: biochemical
Protocol: Based on HPLC analysis of digestion products, activation of peptidyl-toxin to free toxin occurs via a series of enzyme catalyzed cleavage reactions. […] Initial endopeptidase cleavage occurs between the AA^3 (P1) and AA^2(P1') amino acids to yield alanyl-leucyl-doxorubicin.
(§1) Test samples were incubated at 37°C for 2 hr with the three different preparations of carcinoma enzyme and with whole blood, extracted with acetonitrile, and analyzed by HPLC using fluorescence detection. With few exceptions, results for carcinoma enzyme cleavage were the same for a partially purified fraction from HeLa cells, MFC 7/6 cell homogenate, or MCF 7/6 conditioned media.
MCF 7/6 cells were grown to confluence in a serum free medium containing DMEM:F12 (1:1), 50 mg/L bovine serum albumin, ITS-X, and Lipid Concentrate. 100 mL of cells were harvested by centrifugation at 4°C 10,000xg, for 20 min and decanting the supernatant. The pellet was resuspended in 2 mL phosphate buffered saline (Gibco) and centrifuged at 18,000xg for 10 min. […]
(§2) For HPLC analysis 50 µL of sample was injected on a 4.6 x 50 mm 2µ TSK Super-ODS chromatography column at 40°C and eluted with a 3 minute linear gradient from 26% to 68% acetonitrile in aqueous 20 mM ammonium acetate pH 4.5 buffer at 2 mL/min. Detection was by fluorescence using an excitation wavelength of 235 nm and an emission wavelength of 560 nm. […]

[3] = tested on: MCF 7/6 (breast carcinoma) conditioned media; assay: Compound screen: cleavage by MCF 7/6 conditioned media, HPLC; format: biochemical; details: 2 hr at 37°C
Protocol: as §1
MCF 7/6 cells were grown to confluence in DMEM/F12 (1:1) medium containing 10 % fetal bovine serum, 0.05% (w/v) L-glutamine, 250 IU/mL penicillin, and 100 µg/mL streptomycin. Cells were then washed twice with phosphate buffered saline and incubated 24 hr at 5% CO2, 37°C, in DMEM/F12 (1:1), 0.02% BSA, ITS-X. The conditioned media was then decanted and, using a stirred cell apparatus with a YM10 (10.000 MW cutoff) ultrafiltration membrane(Millipore), exchanged once with 10 mM HEPES buffer, pH 7.2 and concentrated twenty-fold. This solution was stored in aliquots at-20°C for use in the compound screen. […]
as §2

[4] = tested on: trouase; assay: Compound screen: cleavage by HeLa cell anion exchange fraction pool (partially purified trouase), HPLC; format: biochemical, human; details: 2 hr at 37°C
Protocol: as §1
Thirty billion commercially produced HeLa Cells (human cervical carcinoma, Computer Cell Culture Center, Seneffe, Belgium) were homogenized with a sonicator and with a Dounce homogenizer in 108 mL of aqueous lysis solution. […]
A portion of the ultracentrifugation supernatant was diluted 2-fold with a 20 mM triethanolamine-HCl pH 7.2 buffer containing 0.01% (w/v) Triton X-100 and 0.02% (w/v) sodium azide (equilibration buffer). […] Its transformation into L-alanyl-L-leucyl-doxorubicin was quantified by reverse phase high performance liquid chromatography utilizing fluorescence detection of the anthracycline moiety. […]
as §2

[5] = Aggregation: filtration through Centricon filter units of different MWCO; format: physicochemical; details: 17.4 µMol/ml in distilled water, 2 hr at 1500g; for 3000 MWCO Filt.: quantitated at λ475 nm
Excerpt: Sci., 73(6):766-770 (1984). Confalonieri, C. et al., The use of new laser particle sizer and shape analyser to detect and evaluate gelatinous microparticles suspended in reconstituted anthracycline infusion solutions, J. Pharmaceut. Biomed. Anal., 9(1):1-8 (1991). […] Each filter unit was centrifuged for 2 hr at 1500g force. […]

[6] = tested on: LS-174T human colorectal carcinoma; assay: Nude mouse xenograft model, LS-174T
[7] = Acute toxicity after intravenous injection in mice; format: in vivo; details: iv bolus of 250 mg/kg (Dox-HCl eq.), three to five mice per group
[8] = Supporting toxicity studies; details: doses of up to 106.8 mg/kg
[9] = tested on: adriamycin-resistant colorectal carcinoma CXF280/10; assay: Nude mouse xenograft model, CXF280/10; format: in vivo; details: CXF280/10 xenograft
[10] = tested on: estrogen-dependent MCF-7/6 mammary tumor; assay: Nude mouse xenograft model, MCF-7/6; format: in vivo; details: MCF-7/6 xenograft
[11] = tested on: trouase; assay: Trouase cleavage of N-capped peptidyl-daunorubicin (defining characteristic); format: biochemical; details: under appropriate assay conditions
Excerpt: Trouase is the enzyme which is thought to be critical for specific activation of prodrug at the target tissue.

[12] = subcutaneous LS174T tumors, five weekly intravenous doses of 57, 64 and 71 mg/kg, versus vehicle-treated controls

c1cnc2c(c1)ccc1cccnc12 [1,10-phenanthroline]
inhibition of trouase [1]: inhibited

CCCNC(=O)[C@H]1O[C@@H]1C(=O)N[C@H](C(=O)N1CCC[C@H]1C(=O)O)[C@@H](C)CC [CA074]
inhibition of trouase [1]: not

CC(C)C[C@H](NC(=O)[C@H]1O[C@@H]1C(=O)O)C(=O)NCCCCN=C(N)N [E64]
inhibition of trouase [1]: not

O=C(O)CN(CCN(CC(=O)O)CC(=O)O)CC(=O)O [EDTA]
inhibition of trouase [1]: inhibited

COc1cccc2c1C(=O)c1c(O)c3c(c(O)c1C2=O)C[C@@](O)(C(C)=O)C[C@@H]3O[C@H]1C[C@H](NC(=O)[C@H](CC(C)C)NC(=O)[C@H](C)NC(=O)[C@H](CC(C)C)NC(=O)[C@H](C)NC(=O)CCC(=O)O)[C@H](O)[C@H](C)O1 [P2 L-alanine compound]
extent (rate) of cleavage by cell homogenate versus the P2 β-alanine compound ([2]; 2 hr at 37°C): 1.3 fold | extent of cleavage by conditioned medium versus the P2 β-alanine compound [3]: about the same | extent of cleavage with the partially purified trouase preparation versus the P2 β-alanine compound [4]: 0.6 fold

COc1cccc2c1C(=O)c1c(O)c3c(c(O)c1C2=O)C[C@@](O)(C(=O)CO)C[C@@H]3O[C@H]1C[C@H](N)[C@H](O)[C@H](C)O1 [doxorubicin]
3000 MWCO Filt. ([5]; passing through filter): 81% | 3000 MWCO Filt. ([5]; passing through filter, listed as Dox): 81% | 10000 MWCO Filt. ([5]; passing through filter): 82% | 50000 MWCO Filt. ([5]; passing through filter): 93% | 3000 MWCO Ret. ([5]; retained): 10% | 10000 MWCO Ret. ([5]; retained): 2% | 50000 MWCO Ret. ([5]; retained): 0.5% | Dose limiting toxicity (cardiotoxicity and myelosuppression), dose at which observed ([6]; repeated administration): ≥ 3 mg/kg

CO[C@@H]1[C@H](OC(=O)/C=C/C=C/C=C/C=C/C(=O)O)CC[C@]2(CO2)[C@H]1[C@@]1(C)O[C@@H]1CC=C(C)C [fumagillin]
inhibition of trouase [1]: not

COc1cccc2c1C(=O)c1c(O)c3c(c(O)c1C2=O)CC(O)(C(=O)CO)CC3OC1CC(NC(=O)C(CC(C)C)NC(=O)C(C)NC(=O)C(CC(C)C)NC(=O)CCNC(=O)CCCC(=O)O)C(O)C(C)O1 (stereo not drawn) [glutaryl βAlaLeuAlaLeu-Dox, Gl-β-Ala-Leu-Ala-Leu-Dox]
survival [7]: all animals survived up to 8 days

CC(=O)N[C@@H](CC(C)C)C(=O)N[C@@H](CC(C)C)C(=O)N[C@H](C=O)CCCNC(=N)N [leupeptin]
inhibition of trouase [1]: not

CC(C)CC(=O)N[C@H](C(=O)N[C@H](C(=O)N[C@@H](CC(C)C)[C@@H](O)CC(=O)N[C@@H](C)C(=O)N[C@@H](CC(C)C)[C@@H](O)CC(=O)O)C(C)C)C(C)C [pepstatin] (Isovaleryl-VV[Sta]A[Sta]-OH)
inhibition of trouase [1]: not

COc1cccc2c1C(=O)c1c(O)c3c(c(O)c1C2=O)CC(O)(C(=O)CO)CC3OC1CC(NC(=O)C(CC(C)C)NC(=O)C(C)NC(=O)C(CC(C)C)NC(=O)CCNC(=O)CCC(=O)O)C(O)C(C)O1 (stereo not drawn) [succinyl-β-Ala-Leu-Ala-Leu-Dox]
activation of peptidyl-toxin (digestion products by HPLC) ([2]; extracts of carcinoma cells or carcinoma cell conditioned media, two steps, at least two enzymes): converted to leucyl-doxorubicin | survival [7]: all animals survived up to 8 days | kidney toxicity and myelosuppression [8]: not observed | inhibiting the growth of human tumors [9]: efficacious | inhibiting the growth of human tumors ([6]; LS-174T xenograft): efficacious | toxicity at efficacious doses ([6]; LS-174T xenograft model): without significant toxicity | efficacy in inhibiting LS-174T tumor compared to doxorubicin at 3.0 mg/kg and saline ([6]; doses of 49, 57 and 64 mg/kg): superior efficacy | body weight ([6]; repeat dosing, LS174T model): Some dose-dependent body weight loss | safety and tolerability ([6]; repeat-dose levels and frequencies that demonstrated anti-tumor efficacy): safe and well-tolerated | Mean Day of Survival (MDS) [6, 12]: significant, dose-dependent, replicable extension | tumor volume [6, 12]: decreased size of the tumor | inhibiting the growth of human tumors [10]: efficacious

COc1cccc2c1C(=O)c1c(O)c3c(c(O)c1C2=O)C[C@@](O)(C(C)=O)C[C@@H]3O[C@H]1C[C@H](NC(=O)[C@H](CC(C)C)NC(=O)[C@H](C)NC(=O)[C@H](CC(C)C)NC(=O)CCNC(=O)CCC(=O)O)[C@H](O)[C@H](C)O1 [succinyl-βAlaLeuAlaLeu-Daunorubicin, Suc-β-Ala-Leu-Ala-Leu-Dnr]
cleavage by trouase [11]: readily cleaves

CC[C@H](C)[C@H](NC(=O)CCNC(=O)CCC(=O)O)C(=O)N[C@@H](C)C(=O)N[C@@H](CC(C)C)C(=O)N[C@H]1C[C@H](O[C@H]2C[C@](O)(C(C)=O)Cc3c(O)c4c(c(O)c32)C(=O)c2c(OC)cccc2C4=O)O[C@@H](C)[C@H]1O [succinyl-βAlalleAlaLeu-Daunorubicin]
trouase activity relative to succinyl-βAlaLeuAlaLeu-Daunorubicin [11]: at least twenty-fold less active

aminoethylbenzene-sufonate
inhibition of trouase [1]: not

cobalt
concentration that re-activates EDTA inactivated trouase [1]: 50 to 100 µM

cupric cations
re-activation of EDTA inactivated trouase [1]: not

manganese
concentration that re-activates EDTA inactivated trouase [1]: 50 to 1000 µM

zinc
re-activation of EDTA inactivated trouase [1]: not

Reference: patent EP1144011B1, “PRODRUG COMPOUNDS AND PROCESS FOR PREPARATION THEREOF” (Coulter Pharmaceutical, Inc., priority 1998, dated 2000)
